Reference: patent publication US9464064B2, “HCV helicase inhibitors and methods of use thereof” (University of Kansas, priority 2011, dated 2016)

Biological target: T1, HCV NS3 helicase NS3h_1b(con1) (Hepatitis C virus genotype 1b, UniProt Q9WMX2)
T1 construct: truncated C-terminally His-tagged NS3 proteins lacking the N-terminal protease, called NS3h; His-tag (C); made in house
Assay: MBHA screen of NCI mechanistic set library at 20 μM (percent inhibition, compound interference)
Format: biochemical
Settings: compounds at 20 μM; for Inh. (%) (Inhibition): calculated from Equation 1
Outline: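 Molecular beacon-based DNA unwinding assay; compounds screened at 20 μM in triplicate, with DMSO-only negative and 500 nM dT20 positive controls. Fluorescence (ex 643/em 670 nm) was read before and 30 min after adding ATP to 1 mM. Percent inhibition came from the change relative to DMSO controls; interference from pre-ATP fluorescence versus DMSO controls.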

[1] = MBHA with DNA substrate, assay interference calculated with Equation 2
[2] = assay interference calculated with Equation 2 (fluorescence vs DMSO-only controls before ATP)

T1 sequence (Q9WMX2 1192-1657): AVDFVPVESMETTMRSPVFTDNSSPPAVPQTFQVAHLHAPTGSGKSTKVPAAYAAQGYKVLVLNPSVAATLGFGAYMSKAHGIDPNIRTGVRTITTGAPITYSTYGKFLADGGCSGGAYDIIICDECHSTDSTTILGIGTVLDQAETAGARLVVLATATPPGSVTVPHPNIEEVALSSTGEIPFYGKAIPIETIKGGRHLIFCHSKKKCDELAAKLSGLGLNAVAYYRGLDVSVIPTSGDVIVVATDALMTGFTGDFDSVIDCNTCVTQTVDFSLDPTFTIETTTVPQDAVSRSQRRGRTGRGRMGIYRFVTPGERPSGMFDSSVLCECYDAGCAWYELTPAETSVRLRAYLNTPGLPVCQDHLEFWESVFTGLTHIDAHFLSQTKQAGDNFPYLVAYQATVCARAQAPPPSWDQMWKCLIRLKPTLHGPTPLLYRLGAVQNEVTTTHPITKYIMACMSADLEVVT

| Compound | Int.* (Ratio) (Interference) [1] | Inh. (%) (Inhibition) (MBHA with DNA substrate) | Inh. (%) (Inhibition) (MBHA with a DNA substrate) | Int.* (Ratio) (Interference) [2] |
| --- | --- | --- | --- | --- |
| CCCCCCCCCCCCCCCCCCOP(=O)([O-])OCC[N+](C)(C)C [Compound 282880] | 0.85 | 5.8 | – | – |
| CC(=O)O[C@H]1C(=O)[C@@]2(C)[C@H]([C@H](OC(=O)c3ccccc3)[C@]3(O)C[C@H](O)C(C)=C1C3(C)C)[C@]1(OC(C)=O)CO[C@@H]1C[C@@H]2O [Compound 330753] | – | – | −24.1 | 0.88 |
| NC(=O)N/N=C1\CC2C3CC4C2C4C13 (stereo not drawn) [Compound 673912] | – | – | −4.0 | 1.04 |
| Cc1ccc(Nc2nc(C)c(C(/C=C/c3ccc(/C=C/C(=N\NC(=O)C[n+]4ccccc4)c4sc(Nc5ccc(C)cc5[N+](=O)[O-])nc4C)cc3)=N/NC(=O)C[n+]3ccccc3)s2)c([N+](=O)[O-])c1.Cl [Compound 640342] | – | – | −22.4 | 0.95 |
| CN(C)c1ccc(C=c2c3ccccc3n3c2cc(-c2ccc(Cl)cc2)[n+]3C)cc1.O=S(=O)([O-])C(F)(F)F [Compound 699479] | 0.38 | 45.1 | – | – |
| CC1=C(C(=O)NCc2ccccc2)C(c2ccccc2O)C(C(=O)NCc2ccccc2)=C(C)N1 [Compound 634928] | – | – | 6.8 | 0.97 |
| CC(C)N.CC(C)N.[Cl-].[Cl-].[OH-].[OH-].[Pt] [Compound 256927] | 1.02 | −0.4 | – | – |
| C/C1=C\[C@H](C)C[C@H](C)OC(=O)CC(c2ccc(O)cc2)NC(=O)[C@@H](Cc2c(Br)[nH]c3ccccc23)N(C)C(=O)[C@H](C)NC(=O)[C@@H](C)C1 (stereo partly drawn) [Compound 613009] | – | – | −21.7 | 0.94 |
| CN(C)c1ccc2c(SCC(=O)OCC(=O)[C@@]3(O)CC[C@H]4[C@@H]5CCC6=CC(=O)C=C[C@]6(C)[C@H]5C(=O)C[C@@]43C)c3ccc(N(C)C)cc3nc2c1 [Compound 337851] | 0.29 | 2.3 | – | – |
| C[C@@H]1CCOC(=O)/C=C/C=C\C(=O)O[C@@H]2C[C@H]3O[C@@H]4[C@@H]5O[C@]5(C)[C@H](O)C[C@]4(COC(=O)[C@H]1O)[C@]2(C)[C@@]31CO1 [Compound 328166] | 1.04 | 20.7 | – | – |
| Cc1ccc2ccc3ccc(C)nc3c2n1 [Compound 4280] | 1.01 | −9.2 | – | – |
| CCOC(=O)/N=C(\N)SCc1ccccc1.Cl [Compound 622684] | 1.04 | −1.3 | – | – |
| O=Nc1ccc(O)c2ncccc12 [Compound 3852] | 1.01 | −15.7 | – | – |
| COC(=O)Nc1nc2ccc(Br)cc2[nH]1 [Compound 154754] | – | – | 7.6 | 0.91 |
| CC1(C)N=C(N)N=C(N)N1c1ccc(CCCCc2ccc(Cl)cc2Cl)cc1 [Compound 104129] | – | – | −42.7 | 0.92 |
| CC(C)(C)C1CCC2(CC1)CCN(CCCN1CCOCC1)CC2 [Compound 90829] | – | – | −5.9 | 1.16 |
| CCC[CH2][Sn]1([CH2]CCC)[S]CC[N]1S(=O)(=O)c1ccc(C)cc1 [Compound 183359] | 0.83 | 13.3 | – | – |
| CC(/C=C/C(O)=C1/C(=O)CNC1=O)=C\[C@@H](C)[C@H]1O[C@]2(C)O[C@@H](C(=O)[C@@H]3O[C@@]32C)[C@@H]1C [Compound 107067] | – | – | −6.0 | 0.90 |
| CO[C@H]1Nc2c(ccc(C)c2O)C(=O)N2C=C(/C=C/C(N)=O)C[C@@H]12 [Compound 106408] | 0.94 | 22.7 | – | – |
| CC(CN(C)C)C(=O)c1ccccc1C(=O)O (stereo not drawn) [Compound 22992] | 0.86 | 25.9 | – | – |
| O=[N+]([O-])c1ccc(N=Nc2c(O)[nH]c3ccccc23)c([N+](=O)[O-])c1 [Compound 4810] | 1.01 | −15.4 | – | – |
| O=C1C(C(O)(C(F)(F)F)C(F)(F)F)CCC1C(O)(C(F)(F)F)C(F)(F)F (stereo not drawn) [Compound 664181] | 0.84 | 14.5 | – | – |
| Cl.NC1(CCNC(=O)c2ccccc2)CCN(C(=O)c2ccccc2)CC1 [Compound 680509] | – | – | −35.7 | 0.99 |
| [O-][Cl+3]([O-])([O-])[O-].c1ccc(-c2csc3c4ccccc4c4ccccc4[n+]23)cc1 [Compound 98904] | 0.89 | 41.2 | – | – |

| Compound | Int.* (Ratio) (Interference) [1] | Inh. (%) (Inhibition) (MBHA with DNA substrate) | Inh. (%) (Inhibition) (MBHA with a DNA substrate) | Int.* (Ratio) (Interference) [2] |
| --- | --- | --- | --- | --- |
| COC(=O)[C@@]12OC[C@]34[C@H]([C@@H](O)[C@@H]1O)[C@@]1(C)CC(=O)C(O)=C(C)[C@@H]1C[C@H]3OC(=O)[C@H](OC(=O)C=C(C)C)[C@@H]24 [Compound 172924] | 1.01 | 13.3 | – | – |
| CCN(CC)CCN1C(=O)c2c(c3c4cccc(Cl)c4n(C4OC(CO)C(OC)C(O)C4O)c3c3[nH]c4c(Cl)cccc4c23)C1=O (stereo not drawn) [Compound 640199] | 0.70 | 76.4 | – | – |
| COc1ccc2nc(NC(=O)C(=O)CC(=O)c3ccc(Cl)cc3)sc2c1 [Compound 623059] | 0.94 | −8.7 | – | – |
| C/C(NNC(=O)c1ccccc1O)=C1\C=Nc2ccccc2S1 [Compound 635121] | 0.92 | 14.5 | – | – |
| C1CCNCC1.S=C(S)N1CCCCC1 [Compound 1906] | 1.17 | −1.6 | – | – |
| Oc1cc(-n2cccn2)c(O)cc1-n1cccn1 [Compound 645987] | – | – | −7.0 | 0.88 |
| Cc1nc(-c2cccnc2)sc1C(=O)/C=C/c1ccc(Cl)cc1Cl [Compound 640580] | – | – | −32.9 | 1.09 |
| COc1ccc(-c2cc(=O)c3c(O)cc(O)cc3o2)cc1OC [Compound 128305] | – | – | −4.3 | 0.99 |
| C=C1C(=O)OC2/C=C(/CO)[C@@H](OC(C)=O)C[C@H](O)/C(C)=C\[C@@H](OC(=O)[C@@H](C)CC)[C@@H]12 (stereo partly drawn) [Compound 292663] | 0.95 | 5.1 | – | – |
| CC[C@@]1(O)C[C@H](OC2CC(N(C)C)C(O)C(C)O2)c2c(O)c3c(c(O)c2[C@H]1OC1CC(N(C)C)C(O)C(C)O1)C(=O)c1cccc(O)c1C3=O (stereo partly drawn) [Compound 136044] | 0.33 | 47.9 | – | – |
| CC(C)OP(=O)(OC(C)C)C(N(C)C)P(=O)(OC(C)C)OC(C)C.[Cl][Sn]([Cl])([Cl])[c]1ccccc1 [Compound 645567] | 1.04 | 2.4 | – | – |
| Cc1cc(=O)[nH]c(NN2C(Cl)C(=O)C2c2c(O)ccc3ccccc23)n1 (stereo not drawn) [Compound 653016] | – | – | −40.6 | 1.02 |
| c1ccc2c(c1)nnn1c3cnccc3nc21 [Compound 128734] | – | – | −3.1 | 0.91 |
| C[C@H]1O[C@@H](c2ccc3c(c2O)C(=O)C2=C(C3=O)[C@@]3(O)C(=O)C[C@](C)(O)C[C@@]3(O)C=C2)C[C@@H](O)[C@@H]1O [Compound 184398] | – | – | −39.0 | 1.09 |
| CN(C)c1ccc(/C=C2\CCc3ccccc3C2=O)cc1Br [Compound 643162] | 1.02 | −2.2 | – | – |
| COc1ccc(C(=O)/C(Br)=C\C(=O)O)cc1 [Compound 104801] | 1.00 | −9.5 | – | – |
| CC(C)(C)OC(=O)NC(Cc1ccccc1)C(=O)OCN1C(=O)C2C3C=CC(C2C1=O)C1C2C(=O)N(COC(=O)C(Cc4ccccc4)NC(=O)OC(C)(C)C)C(=O)C2C31 (stereo not drawn) [Compound 607316] | 0.97 | −1.8 | – | – |
| CC1OC(CC(=O)O)CC2=C1C(=O)c1c(O)cccc1C2=O (stereo not drawn) [Compound 267461] | 1.01 | −14.4 | – | – |
| Cc1c(N=Cc2ccc(N(CCC#N)CCC#N)cc2)c(=O)n(-c2ccccc2)n1C [Compound 620280] | – | – | −30.3 | 1.01 |
| COc1cc(C(O)CCBr)c(OC)cc1C (stereo not drawn) [Compound 611750] | 0.94 | −8.1 | – | – |
| CN(CCc1ccccn1)c1ccc2c(c1)C(=O)c1ccccc1-2 [Compound 24048] | 1.11 | −12.7 | – | – |
| COC(C(=O)C(O)C(C)O)C1Cc2cc3cc(OC4CC(OC5CC(O)C(O)C(C)O5)C(O)C(C)O4)c(C)c(O)c3c(O)c2C(=O)C1OC1CC(OC2CC(OC3CC(O)C(OC)C(C)O3)C(O)C(C)O2)C(O)C(C)O1 (stereo not drawn) [Compound 269146] | 0.89 | 15.0 | – | – |
| CCN(CC)CCCC(C)Nc1c2ccc(Cl)cc2nc2ccc(OC)cc12.Cl.Cl (stereo not drawn) [Compound 14229] | 1.08 | 55.1 | – | – |
| CC(=O)NC1C(OCc2ccccc2)OC(CO)C(O)C1OC(C)C(=O)NC(C(=O)NC(CCC(=O)NCCCCNc1c2ccccc2nc2cccc([N+](=O)[O-])c12)C(N)=O)C(C)C (stereo not drawn) [Compound 697468] | – | – | −23.8 | 0.97 |
